Measurements taken from ChEMBL document CHEMBL1152139, “Pterocarpans and flavanones from Sophora flavescens displaying potent neuraminidase inhibition” (Bioorg Med Chem Lett, 2008).

test: Inhibition of mouse liver sialidase

SMILES | IC50 [µM]
O=C(O)[C@H]1O[C@@H](Oc2c(O)c(O[C@@H]3O[C@H](C(=O)O)[C@@H](O)[C@H](O)[C@H]3O)c3oc(-c4ccc(O)cc4)cc(=O)c3c2O)[C@H](O)[C@@H](O)[C@@H]1O | 40

test: Inhibition of Clostridium perfringens neuraminidase

SMILES | IC50 [µM]
C=C(C)[C@H](CCC(C)(C)O)Cc1c(O)cc(OC)c2c1O[C@H](c1ccc(O)cc1O)CC2=O [KURARINOL] | 17
C=C(C)C(CC=C(C)C)Cc1c(O)cc(OC)c2c1O[C@H](c1ccc(O)cc1O)CC2=O (stereo not given in full) [KURARINONE] | 15.1
C=C(C)[C@H](CC=C(C)C)Cc1c(O)cc(O)c2c1O[C@H](c1ccccc1O)CC2=O [KUSHENOL A] | 14.8
C=C(C)[C@H](CCC(C)(C)O)Cc1c(O)cc(O)c2c1O[C@H](c1ccccc1O)CC2=O [KUSHENOL T] | 12.1
Oc1ccc2c(c1)OC[C@H]1c3cc4c(cc3O[C@@H]21)OCO4 [MAACKIAIN] | 3.2
O=c1c2cc(O)c(O)cc2oc2cc(O)c([C@@H]3O[C@H](CO)[C@@H](O)[C@H](O)[C@H]3O)c(O)c12 [MANGIFERIN] | 16.2
C=C(C)[C@H](CCC(C)(C)O)Cc1c(O)cc(O)c2c1O[C@H](c1ccc(O)cc1O)CC2=O [NORKURARINOL] | 18.3
COc1ccc2c(c1)OC[C@H]1c3cc4c(cc3O[C@@H]21)OCO4 [PTEROCARPIN] | 1.4
C=C(C)[C@H](CC=C(C)C)Cc1c(O)cc(O)c2c1O[C@H](c1ccc(O)cc1O)CC2=O [SOPHORAFLAVANONE G] | 13.5
OC[C@H]1O[C@@H](Oc2ccc3c(c2)OC[C@H]2c4cc5c(cc4O[C@@H]32)OCO5)[C@H](O)[C@@H](O)[C@@H]1O [TRIFOLIRHIZIN] | 237

test: Inhibition of Clostridium perfringens neuraminidase by Lineweaver-Burke plot

SMILES | Ki [µM]
C=C(C)[C@H](CCC(C)(C)O)Cc1c(O)cc(OC)c2c1O[C@H](c1ccc(O)cc1O)CC2=O [KURARINOL] | 19.7
C=C(C)C(CC=C(C)C)Cc1c(O)cc(OC)c2c1O[C@H](c1ccc(O)cc1O)CC2=O (stereo not given in full) [KURARINONE] | 18.8
C=C(C)[C@H](CC=C(C)C)Cc1c(O)cc(O)c2c1O[C@H](c1ccccc1O)CC2=O [KUSHENOL A] | 17.1
C=C(C)[C@H](CCC(C)(C)O)Cc1c(O)cc(O)c2c1O[C@H](c1ccccc1O)CC2=O [KUSHENOL T] | 10.8
Oc1ccc2c(c1)OC[C@H]1c3cc4c(cc3O[C@@H]21)OCO4 [MAACKIAIN] | 2.1
C=C(C)[C@H](CCC(C)(C)O)Cc1c(O)cc(O)c2c1O[C@H](c1ccc(O)cc1O)CC2=O [NORKURARINOL] | 22.7
COc1ccc2c(c1)OC[C@H]1c3cc4c(cc3O[C@@H]21)OCO4 [PTEROCARPIN] | 1.7
C=C(C)[C@H](CC=C(C)C)Cc1c(O)cc(O)c2c1O[C@H](c1ccc(O)cc1O)CC2=O [SOPHORAFLAVANONE G] | 20
OC[C@H]1O[C@@H](Oc2ccc3c(c2)OC[C@H]2c4cc5c(cc4O[C@@H]32)OCO5)[C@H](O)[C@@H](O)[C@@H]1O [TRIFOLIRHIZIN] | 190
